Assays:
[1] = molecular target: T1, Human serum albumin (HSA) (Homo sapiens, UniProt P02768); assay: Binding constants by quenching of HSA tryptophan fluorescence
T1 construct: Fatty acid free HSA and warfarin sodium were purchased from Sigma-Aldrich; purchased Sigma-Aldrich (St. Louis, MO, USA)
Method: In all experiments, the final co-solvent concentration was held below 5%. This was done to prevent conformational changes of HSA due to changes in dielectric constant of the solvent.
Steady-state fluorescence was recorded using a thermostated Safas Xenius fluorometer (Safas Monaco, Monaco) with an integrated stirrer. All studies were performed at 25 ± 1 °C using 10 nm excitation and emission slit widths. […] Measurements were performed in duplicate.
A stock solution of a single ligand was gradually added via syringe to a 2 mL of a 6 μM HSA solution placed in a quartz cell. Measurements were conducted at the excitation wavelength of 295 nm and emission was recorded in the 310–400 nm range enabling calculations of corresponding binding constants. […] Binding constants were determined according to Dufour and Dangles. A Scatchard analysis was performed assuming n identical binding sites on HSA. Values for binding constant (K), molar fluorescence intensity of the complex (f), and the stoichiometric coefficient (n) were estimated by fitting the F vs. Lt curves against Equations (1) and (2) using a least-square regression program Scientist (MicroMath, Salt Lake City, UT, USA), where F is fluorescence intensity, [L] the free ligand concentration, [Lt] the total ligand concentration, and c the total albumin concentration. […] In all cases, the inner filter effect was taken into account by using absorption of free ligands at excitation and emission wavelengths (εex and εem, respectively) (Equation (3)), where Fcorr is the fluorescence corrected for the inner filter effect, F0 is the measured fluorescence, ε is the sum of εex and εem, l = 0.65 is the optical path and c is the flavonoid concentration. (1) Fcorr=fcnK[L]/1+K[L] (2) [Lt]=[L](1+ncK/1+K[L]) (3) F0=Fcorr×10^−εlc

[2] = molecular target: Human serum albumin (HSA) IIA binding site (Homo sapiens, UniProt P02768); assay: Flavonoid fluorescence (excitation 450 nm) on HSA pre-saturated with warfarin (simultaneous binding / displacement)
Method: HSA was freshly dissolved in Dulbecco’s phosphate-buffered saline pH 7.4 (137 mM sodium chloride, 2.7 mM potassium chloride, 8.1 mM disodium hydrogen phosphate, 1.47 mM potassium dihydrogen phosphate) immediately before measurements. […]. In all experiments, the final co-solvent concentration was held below 5%. This was done to prevent conformational changes of HSA due to changes in dielectric constant of the solvent.
Steady-state fluorescence was recorded using a thermostated Safas Xenius fluorometer (Safas Monaco, Monaco) with an integrated stirrer. All studies were performed at 25 ± 1 °C using 10 nm excitation and emission slit widths. […] Higher concentrations of HSA and ligands were not used due to poor solubility of ligands and high influence of ligand absorption. Measurements were performed in duplicate.

[3] = Flavonoid fluorescence in buffer solution without HSA
[4] = HSA 0-92% saturated with warfarin

Sequence of Human serum albumin (HSA) IIA binding site (P02768 25-609): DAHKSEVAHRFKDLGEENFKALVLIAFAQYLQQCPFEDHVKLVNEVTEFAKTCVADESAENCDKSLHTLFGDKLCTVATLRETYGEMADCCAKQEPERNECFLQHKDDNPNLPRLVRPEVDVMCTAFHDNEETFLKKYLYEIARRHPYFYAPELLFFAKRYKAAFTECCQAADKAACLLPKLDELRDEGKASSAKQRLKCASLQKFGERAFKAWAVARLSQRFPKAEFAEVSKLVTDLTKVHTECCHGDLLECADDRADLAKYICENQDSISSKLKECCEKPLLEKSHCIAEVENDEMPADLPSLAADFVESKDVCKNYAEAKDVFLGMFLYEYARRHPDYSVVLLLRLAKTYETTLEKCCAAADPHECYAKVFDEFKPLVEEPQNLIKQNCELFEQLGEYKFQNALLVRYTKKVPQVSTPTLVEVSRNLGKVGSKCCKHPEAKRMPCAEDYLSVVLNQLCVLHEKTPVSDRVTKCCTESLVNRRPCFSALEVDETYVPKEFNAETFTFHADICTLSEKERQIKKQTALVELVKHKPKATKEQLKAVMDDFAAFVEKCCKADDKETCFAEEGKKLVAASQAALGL
T1 sequence (P02768 25-609): as above

O=c1cc(-c2ccc(O)c(O)c2)oc2cc(O)cc(O)c12 [Luteolin]
Kd [1]: 8.2 µM
Effect of warfarin on flavonoid Fmax (maximum fluorescence) [2, 4]: no noticeable change
Effect of warfarin on flavonoid cmax (concentration needed to achieve Fmax) [2, 4]: no noticeable change
Absolute fluorescence intensity ([2]; flavonoid 2,00 uM, 0% occupied HSA): 3,5310
Absolute fluorescence intensity ([2]; flavonoid 2,00 uM, 22% occupied HSA): 3,0516
Absolute fluorescence intensity ([2]; flavonoid 2,00 uM, 38% occupied HSA): 3,2663
Absolute fluorescence intensity ([2]; flavonoid 2,00 uM, 63% occupied HSA): 2,9688
Absolute fluorescence intensity ([2]; flavonoid 2,00 uM, 92% occupied HSA): 3,0838
Absolute fluorescence intensity ([2]; flavonoid 4,00 uM, 0% occupied HSA): 5,6541
Absolute fluorescence intensity ([2]; flavonoid 4,00 uM, 22% occupied HSA): 5,0287
Absolute fluorescence intensity ([2]; flavonoid 4,00 uM, 38% occupied HSA): 5,0961
Absolute fluorescence intensity ([2]; flavonoid 4,00 uM, 63% occupied HSA): 4,7527
Absolute fluorescence intensity ([2]; flavonoid 4,00 uM, 92% occupied HSA): 4,7445
Absolute fluorescence intensity ([2]; flavonoid 6,00 uM, 0% occupied HSA): 7,6599
Absolute fluorescence intensity ([2]; flavonoid 6,00 uM, 22% occupied HSA): 6,8528
Absolute fluorescence intensity ([2]; flavonoid 6,00 uM, 38% occupied HSA): 6,8106
Absolute fluorescence intensity ([2]; flavonoid 6,00 uM, 63% occupied HSA): 6,3873
Absolute fluorescence intensity ([2]; flavonoid 6,00 uM, 92% occupied HSA): 6,5159
Absolute fluorescence intensity ([2]; flavonoid 7,99 uM, 0% occupied HSA): 9,4059
Absolute fluorescence intensity ([2]; flavonoid 7,99 uM, 22% occupied HSA): 8,8217
Absolute fluorescence intensity ([2]; flavonoid 7,99 uM, 38% occupied HSA): 8,5002
Absolute fluorescence intensity ([2]; flavonoid 7,99 uM, 63% occupied HSA): 7,8443
Absolute fluorescence intensity ([2]; flavonoid 7,99 uM, 92% occupied HSA): 8,1746
Absolute fluorescence intensity ([2]; flavonoid 11,98 uM, 0% occupied HSA): 11,5397
Absolute fluorescence intensity ([2]; flavonoid 11,98 uM, 22% occupied HSA): 11,3861
Absolute fluorescence intensity ([2]; flavonoid 11,98 uM, 38% occupied HSA): 11,3711
Absolute fluorescence intensity ([2]; flavonoid 11,98 uM, 63% occupied HSA): 10,9648
Absolute fluorescence intensity ([2]; flavonoid 11,98 uM, 92% occupied HSA): 10,4774
Absolute fluorescence intensity ([2]; flavonoid 15,97 uM, 0% occupied HSA): 14,0865
Absolute fluorescence intensity ([2]; flavonoid 15,97 uM, 22% occupied HSA): 14,1260
Absolute fluorescence intensity ([2]; flavonoid 15,97 uM, 38% occupied HSA): 13,9507
Absolute fluorescence intensity ([2]; flavonoid 15,97 uM, 63% occupied HSA): 13,0693
Absolute fluorescence intensity ([2]; flavonoid 15,97 uM, 92% occupied HSA): 12,9194
Absolute fluorescence intensity ([2]; flavonoid 23,93 uM, 0% occupied HSA): 17,9442
Absolute fluorescence intensity ([2]; flavonoid 23,93 uM, 22% occupied HSA): 17,8085
Absolute fluorescence intensity ([2]; flavonoid 23,93 uM, 38% occupied HSA): 17,8530
Absolute fluorescence intensity ([2]; flavonoid 23,93 uM, 63% occupied HSA): 17,0150
Absolute fluorescence intensity ([2]; flavonoid 23,93 uM, 92% occupied HSA): 16,3518
Absolute fluorescence intensity ([2]; flavonoid 31,87 uM, 0% occupied HSA): 20,8667
Absolute fluorescence intensity ([2]; flavonoid 31,87 uM, 22% occupied HSA): 20,4964
Absolute fluorescence intensity ([2]; flavonoid 31,87 uM, 38% occupied HSA): 20,5131
Absolute fluorescence intensity ([2]; flavonoid 31,87 uM, 63% occupied HSA): 19,6701
Absolute fluorescence intensity ([2]; flavonoid 31,87 uM, 92% occupied HSA): 19,1278
Absolute fluorescence intensity ([2]; flavonoid 39,80 uM, 0% occupied HSA): 22,9301
Absolute fluorescence intensity ([2]; flavonoid 39,80 uM, 22% occupied HSA): 22,5924
Absolute fluorescence intensity ([2]; flavonoid 39,80 uM, 38% occupied HSA): 22,2082
Absolute fluorescence intensity ([2]; flavonoid 39,80 uM, 63% occupied HSA): 21,6524
Absolute fluorescence intensity ([2]; flavonoid 39,80 uM, 92% occupied HSA): 20,8642
Absolute fluorescence intensity ([2]; flavonoid 47,71 uM, 0% occupied HSA): 24,5206
Absolute fluorescence intensity ([2]; flavonoid 47,71 uM, 22% occupied HSA): 23,8063
Absolute fluorescence intensity ([2]; flavonoid 47,71 uM, 38% occupied HSA): 23,5737
Absolute fluorescence intensity ([2]; flavonoid 47,71 uM, 63% occupied HSA): 23,1678
Absolute fluorescence intensity ([2]; flavonoid 47,71 uM, 92% occupied HSA): 22,5713
Absolute fluorescence intensity ([2]; flavonoid 63,49 uM, 0% occupied HSA): 26,4505
Absolute fluorescence intensity ([2]; flavonoid 63,49 uM, 22% occupied HSA): 25,9034
Absolute fluorescence intensity ([2]; flavonoid 63,49 uM, 38% occupied HSA): 25,4318
Absolute fluorescence intensity ([2]; flavonoid 63,49 uM, 63% occupied HSA): 24,8572
Absolute fluorescence intensity ([2]; flavonoid 63,49 uM, 92% occupied HSA): 24,6423
Absolute fluorescence intensity ([2]; flavonoid 79,21 uM, 0% occupied HSA): 26,9488
Absolute fluorescence intensity ([2]; flavonoid 79,21 uM, 22% occupied HSA): 26,5002
Absolute fluorescence intensity ([2]; flavonoid 79,21 uM, 38% occupied HSA): 26,5136
Absolute fluorescence intensity ([2]; flavonoid 79,21 uM, 63% occupied HSA): 25,8191
Absolute fluorescence intensity ([2]; flavonoid 79,21 uM, 92% occupied HSA): 25,3909
Absolute fluorescence intensity ([2]; flavonoid 98,77 uM, 0% occupied HSA): 27,2939
Absolute fluorescence intensity ([2]; flavonoid 98,77 uM, 22% occupied HSA): 27,2804
Absolute fluorescence intensity ([2]; flavonoid 98,77 uM, 38% occupied HSA): 26,9116
Absolute fluorescence intensity ([2]; flavonoid 98,77 uM, 63% occupied HSA): 26,1311
Absolute fluorescence intensity ([2]; flavonoid 98,77 uM, 92% occupied HSA): 26,2198
Absolute fluorescence intensity ([2]; flavonoid 118,23 uM, 0% occupied HSA): 27,1078
Absolute fluorescence intensity ([2]; flavonoid 118,23 uM, 22% occupied HSA): 27,1338
Absolute fluorescence intensity ([2]; flavonoid 118,23 uM, 38% occupied HSA): 26,9198
Absolute fluorescence intensity ([2]; flavonoid 118,23 uM, 63% occupied HSA): 26,3501
Absolute fluorescence intensity ([2]; flavonoid 118,23 uM, 92% occupied HSA): 26,3929
Absolute fluorescence intensity ([2]; flavonoid 137,59 uM, 0% occupied HSA): 26,3217
Absolute fluorescence intensity ([2]; flavonoid 137,59 uM, 22% occupied HSA): 26,7053
Absolute fluorescence intensity ([2]; flavonoid 137,59 uM, 38% occupied HSA): 26,6416
Absolute fluorescence intensity ([2]; flavonoid 137,59 uM, 63% occupied HSA): 26,1054
Absolute fluorescence intensity ([2]; flavonoid 137,59 uM, 92% occupied HSA): 26,3918
Absolute fluorescence intensity ([2]; flavonoid 156,86 uM, 0% occupied HSA): 25,8093
Absolute fluorescence intensity ([2]; flavonoid 156,86 uM, 22% occupied HSA): 26,0626
Absolute fluorescence intensity ([2]; flavonoid 156,86 uM, 38% occupied HSA): 26,1509
Absolute fluorescence intensity ([2]; flavonoid 156,86 uM, 63% occupied HSA): 25,5239
Absolute fluorescence intensity ([2]; flavonoid 156,86 uM, 92% occupied HSA): 25,7773
Absolute fluorescence intensity ([3]; flavonoid 2,00 uM): 0,5984
Absolute fluorescence intensity ([3]; flavonoid 4,00 uM): 0,7341
Absolute fluorescence intensity ([3]; flavonoid 7,99 uM): 0,8094
Absolute fluorescence intensity ([3]; flavonoid 15,97 uM): 0,8481
Absolute fluorescence intensity ([3]; flavonoid 31,87 uM): 1,0538
Absolute fluorescence intensity ([3]; flavonoid 47,71 uM): 1,3400
Absolute fluorescence intensity ([3]; flavonoid 63,49 uM): 1,5045
Absolute fluorescence intensity ([3]; flavonoid 79,21 uM): 1,7483
Absolute fluorescence intensity ([3]; flavonoid 118,23 uM): 2,2774
Absolute fluorescence intensity ([3]; flavonoid 156,86 uM): 2,8851
